Measured values from PubChem BioAssay (NCI).
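Results reflect a 48-hour exposure of cells in 96-well plates to compound at five concentrations. GI50 marks 50% less growth. Definition used: TGI = concentration required for complete inhibition of growth.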

How the values were obtained:
Assay in all cases: NCI-60 cell line screen, 48 h
[1] = tested on: T-47D breast
[2] = tested on: COLO 205 colon
[3] = tested on: HOP-92 NSCLC
[4] = tested on: HL-60(TB) leukemia
[5] = tested on: CAKI-1 renal
[6] = tested on: OVCAR-8 ovarian
[7] = tested on: UO-31 renal
[8] = tested on: RXF 393 renal
[9] = tested on: U251 CNS
[10] = tested on: A549 NSCLC
[11] = tested on: SNB-75 CNS
[12] = tested on: SF-268 CNS
[13] = tested on: HS 578T breast
[14] = tested on: SK-OV-3 ovarian
[15] = tested on: BT-549 breast
[16] = tested on: HT29 colon
[17] = tested on: HCT-116 colon
[18] = tested on: SF-539 CNS
[19] = tested on: NCI-H23 lung
[20] = tested on: OVCAR-3 ovarian
[21] = tested on: SN12C renal
[22] = tested on: MDA-MB-435
[23] = tested on: 786-0 renal
[24] = tested on: MOLT-4 leukemia
[25] = tested on: SK-MEL-28 melanoma
[26] = tested on: NCI/ADR-RES ovarian
[27] = tested on: EKVX NSCLC
[28] = tested on: PC-3 prostate
[29] = tested on: UACC-257 melanoma
[30] = tested on: HCT-15 colon
[31] = tested on: NCI-H460 lung
[32] = tested on: IGROV1 ovarian
[33] = tested on: RPMI-8226 leukemia
[34] = tested on: MDA-MB-231 breast
[35] = tested on: M14 melanoma
[36] = tested on: NCI-H522 lung
[37] = tested on: MCF7 breast
[38] = tested on: SNB-19 CNS
[39] = tested on: UACC-62 melanoma
[40] = tested on: LOX IMVI melanoma
[41] = tested on: K-562 leukemia
[42] = tested on: TK-10 renal
[43] = tested on: SK-MEL-5 melanoma
[44] = tested on: SW-620 colon
[45] = tested on: HCC-2998 colon
[46] = tested on: OVCAR-5 ovarian
[47] = tested on: HOP-62 NSCLC
[48] = tested on: ACHN renal
[49] = tested on: SF-295 CNS
[50] = tested on: OVCAR-4 ovarian
[51] = tested on: DU-145 prostate
[52] = tested on: KM12 colon
[53] = tested on: NCI-H226 lung
[54] = tested on: SK-MEL-2 melanoma
[55] = tested on: A498 renal
[56] = tested on: CCRF-CEM leukemia
[57] = tested on: SR leukemia
[58] = tested on: MALME-3M melanoma

Cc1cc(F)cc(NS(=O)(=O)c2ccc(-c3cnc(C4CC4)o3)cc2)c1
GI50 [1]: 268 nM | TGI [1]: 21800 nM | GI50 [2]: 246 nM | TGI [2]: 1760 nM | GI50 [3]: 422 nM | TGI [3]: 5040 nM | GI50 [4]: 99.3 nM | TGI [4]: 769 nM | GI50 [5]: 86.9 nM | TGI [5]: 13100 nM | GI50 [6]: 735 nM | TGI [6]: 14700 nM | GI50 [7]: 848 nM | TGI [7]: 12600 nM | GI50 [8]: 161 nM | TGI [8]: 603 nM | GI50 [9]: 451 nM | TGI [9]: 14500 nM | GI50 [10]: 662 nM | TGI [10]: 14300 nM | GI50 [11]: 159 nM | TGI [11]: 1570 nM | GI50 [12]: 1500 nM | TGI [12]: 13200 nM | GI50 [13]: 303 nM | TGI [13]: 7850 nM | GI50 [14]: 748 nM | TGI [14]: 15400 nM | GI50 [15]: 1010 nM | TGI [15]: 9820 nM | GI50 [16]: 105 nM | TGI [16]: 12200 nM | GI50 [17]: 225 nM | TGI [17]: 10900 nM | GI50 [18]: 271 nM | TGI [18]: 2990 nM | GI50 [19]: 585 nM | TGI [19]: 12600 nM | GI50 [20]: 52.3 nM | TGI [20]: 11000 nM | GI50 [21]: 773 nM | TGI [21]: 11600 nM | GI50 [22]: 31.4 nM | TGI [22]: 145 nM | GI50 [23]: 752 nM | TGI [23]: 16400 nM | GI50 [24]: 366 nM | TGI [24]: 15400 nM | GI50 [25]: 1890 nM | TGI [25]: 16600 nM | GI50 [26]: 120 nM | TGI [26]: 5290 nM | GI50 [27]: 591 nM | TGI [27]: 13900 nM | GI50 [28]: 342 nM | TGI [28]: 12300 nM | GI50 [29]: 1770 nM | TGI [29]: 12100 nM | GI50 [30]: 83.6 nM | TGI [30]: 11400 nM | GI50 [31]: 142 nM | TGI [31]: 2030 nM | GI50 [32]: 252 nM | TGI [32]: 13600 nM | GI50 [33]: 179 nM | TGI [33]: 1870 nM | GI50 [34]: 827 nM | TGI [34]: 13600 nM | GI50 [35]: 285 nM | TGI [35]: 13000 nM | GI50 [36]: 372 nM | TGI [36]: 10800 nM | GI50 [37]: 80.6 nM | TGI [37]: 12100 nM | GI50 [38]: 441 nM | TGI [38]: 15000 nM | GI50 [39]: 122 nM | TGI [39]: 8860 nM | GI50 [40]: 301 nM | TGI [40]: 12700 nM | GI50 [41]: 49.4 nM | TGI [41]: 12300 nM | GI50 [42]: 3170 nM | TGI [42]: 16700 nM | GI50 [43]: 266 nM | TGI [43]: 1890 nM | GI50 [44]: 98.8 nM | TGI [44]: 14400 nM | GI50 [45]: 739 nM | TGI [45]: 10700 nM | GI50 [46]: 926 nM | TGI [46]: 15500 nM | GI50 [47]: 362 nM | TGI [47]: 14600 nM | GI50 [48]: 648 nM | TGI [48]: 12800 nM | GI50 [49]: 127 nM | TGI [49]: 3490 nM | GI50 [50]: 967 nM | TGI [50]: 15200 nM | GI50 [51]: 421 nM | TGI [51]: 13800 nM | GI50 [52]: 183 nM | TGI [52]: 11600 nM | GI50 [53]: 489 nM | TGI [53]: 7820 nM | GI50 [54]: 1030 nM | TGI [54]: 15500 nM | GI50 [55]: 76.2 nM | TGI [55]: 1010 nM | GI50 [56]: 199 nM | TGI [56]: 13500 nM | GI50 [57]: 46.4 nM | TGI [57]: 5910 nM | GI50 [58]: 837 nM | TGI [58]: 20900 nM

CCC(CC)N1C(=O)/C(=c2\sc3n(c2=O)C2C(NN=3)N(CC)C(=O)N2CC)c2ccccc21 (stereo not given)
GI50 [1]: 2800 nM | TGI [1]: > 65600 nM | GI50 [2]: 317 nM | TGI [2]: 1120 nM | GI50 [3]: 2410 nM | TGI [3]: 45400 nM | GI50 [4]: 288 nM | TGI [4]: 888 nM | GI50 [5]: 577 nM | TGI [5]: 14900 nM | GI50 [6]: 397 nM | TGI [6]: 26700 nM | GI50 [7]: 688 nM | TGI [7]: 33800 nM | GI50 [8]: 326 nM | TGI [8]: 16700 nM | GI50 [9]: 405 nM | TGI [9]: 15500 nM | GI50 [10]: 503 nM | TGI [10]: 21700 nM | GI50 [11]: 198 nM | TGI [11]: 714 nM | GI50 [12]: 1070 nM | TGI [12]: 29300 nM | GI50 [13]: 381 nM | TGI [13]: 22500 nM | GI50 [14]: 629 nM | TGI [14]: 51800 nM | GI50 [15]: 465 nM | TGI [15]: 3290 nM | GI50 [16]: 326 nM | TGI [16]: 3040 nM | GI50 [17]: 345 nM | TGI [17]: 5180 nM | GI50 [18]: 307 nM | TGI [18]: 3430 nM | GI50 [19]: 535 nM | TGI [19]: 17800 nM | GI50 [21]: 1200 nM | TGI [21]: 17800 nM | GI50 [22]: 240 nM | TGI [22]: 602 nM | GI50 [23]: 665 nM | TGI [23]: 14800 nM | GI50 [24]: 434 nM | TGI [24]: > 41100 nM | GI50 [25]: 5820 nM | TGI [25]: 60200 nM | GI50 [26]: 385 nM | TGI [26]: 15600 nM | GI50 [27]: 734 nM | TGI [27]: > 87800 nM | GI50 [28]: 473 nM | TGI [28]: > 100000 nM | GI50 [29]: 7210 nM | TGI [29]: > 78000 nM | GI50 [30]: 353 nM | TGI [30]: 13100 nM | GI50 [31]: 364 nM | TGI [31]: 29000 nM | GI50 [32]: 554 nM | TGI [32]: 19200 nM | GI50 [33]: 442 nM | TGI [33]: 8450 nM | GI50 [34]: 591 nM | TGI [34]: 12000 nM | GI50 [35]: 337 nM | TGI [35]: 11500 nM | GI50 [36]: 312 nM | TGI [36]: 3360 nM | GI50 [37]: 364 nM | TGI [37]: 14000 nM | GI50 [38]: 465 nM | TGI [38]: 24600 nM | GI50 [39]: 538 nM | TGI [39]: 21600 nM | GI50 [40]: 345 nM | TGI [40]: 11100 nM | GI50 [41]: 351 nM | TGI [41]: > 100000 nM | GI50 [42]: 9040 nM | TGI [42]: 29100 nM | GI50 [43]: 590 nM | TGI [43]: 4100 nM | GI50 [44]: 458 nM | TGI [44]: > 100000 nM | GI50 [45]: 370 nM | TGI [45]: 12600 nM | GI50 [46]: 538 nM | TGI [46]: 35300 nM | GI50 [47]: 554 nM | TGI [47]: 22500 nM | GI50 [48]: 690 nM | TGI [48]: 16600 nM | GI50 [49]: 324 nM | TGI [49]: 12300 nM | GI50 [50]: 10400 nM | TGI [50]: > 100000 nM | GI50 [51]: 453 nM | TGI [51]: 17200 nM | GI50 [52]: 431 nM | TGI [52]: 25100 nM | GI50 [53]: 923 nM | TGI [53]: 37100 nM | GI50 [54]: 1920 nM | TGI [54]: 5880 nM | GI50 [55]: 287 nM | TGI [55]: 925 nM | GI50 [56]: 365 nM | TGI [56]: > 94000 nM | GI50 [57]: 361 nM | TGI [57]: > 35100 nM | GI50 [58]: 3460 nM | TGI [58]: 35100 nM
